Laboratory results reported in patent publication US6906098B2, “Mixed steroidal 1,2,4,5-tetraoxane compounds and methods of making and using thereof” (priority 2002, dated 2005).
In brackets after ≈: the same amount, converted by molar mass. Several values for one entry are separate records, joined by “and”; a condition that tells them apart may be missing. Identical values can stand only once. Like-named read-outs stand apart in the source and are kept apart here.

What was measured:
[1] = system: Plasmodium falciparum chloroquine-susceptible strain D6; test: In vitro antimalarial drug susceptibility assay (radiolabeled hypoxanthine incorporation), strain D6; assay type: cell-based; conditions: for Strain D6 IC50: growth inhibition, chloroquine-susceptible strain D6, 66 h incubation; for IC50: Plasmodium falciparum, D6, 66 h, read-out: Strain D6 IC50, growth inhibition, chloroquine-susceptible strain D6, 66 h incubation
[2] = system: Plasmodium falciparum chloroquine-resistant strain W2; test: microbe, parasite or virus in culture; assay type: cell-based; conditions: for Strain W2 IC50: growth inhibition, chloroquine-resistant strain W2, 66 h incubation; for IC50: Plasmodium falciparum, W2, 66 h, read-out: Strain W2 IC50, growth inhibition, chloroquine-resistant strain W2, 66 h incubation
[3] = system: D6 and W2 P. falciparum clones; assay type: cell-based, Plasmodium falciparum; conditions: for Resistance Index: IC50 (W2)/IC50 (D6) ratio
[4] = system: Mycobacterium tuberculosis H37Rv (ATCC 27294); test: Primary screen, Microplate Alamar Blue Assay (MABA), percent inhibition; assay type: cell-based; conditions: primary screening at 6.25 μg/ml; for inhibition at 6.25 µg/mL: Mycobacterium tuberculosis
Description: (§1) The activity of the compounds of the present invention against Mycobacterium tuberculosis was determined using the following assays conducted by the National Institute of Allergy and Infectious Diseases (NIAID) supports a TB drug acquisition and screening program, the TAACF.
To determine the percent inhibition the following assay was conducted. Primary screening was conducted at 6.25 μg/ml (or the molar equivalent of highest molecular weight compound in a given series of congeners) against Mycobacterium tuberculosis H37Rv (ATCC 27294) in BACTEC 12B medium using the Microplate Alamar Blue Assay (MABA). See Collins, L. and S. G. Franzblau. 1997. Microplate alamar blue assay versus BACTEC 460 system for high-throughput screening of compounds against Mycobacterium tuberculosis and Mycobacterium avium. Antimicrob Agents Chemother 41:1004-9, which is herein incorporated by reference.
Minimum compound requirements: 1.0 mg.

M. tuberculosis H37Rv = test: Minimum inhibitory concentration (MIC) in the MABA; assay type: cell-based, Mycobacterium tuberculosis
Description: as §1
2. Minimum Inhibitory Concentration (MIC)
The MIC is defined as the lowest concentration effecting a reduction in fluorescence of 90% relative to controls. Minimum compound requirements: 1.0 mg.

[5] = Table 5, Alamar assay, M. tuberculosis H37Rv
[6] = Table 5, Alamar assay, read-out: % Inhib
[7] = Mycobacterium tuberculosis, H37RV, Table 5, Alamar assay, M. tuberculosis H37Rv, read-out: MIC

SMILES	Strain D6 IC50 [1]	Strain W2 IC50 [2]	Resistance Index [3]	Inhibition (%) ([4]; Table 3, H37Rv)	% Inhib ([4]; Table 5, Alamar assay)	MIC (M. tuberculosis H37Rv; Table 3, H37Rv)	MIC (M. tuberculosis H37Rv; [5])	IC50 [1]	IC50 [2]	inhibition at 6.25 µg/mL [4, 6]	MIC (M. tuberculosis H37Rv; [7])	inhibition at 6.25 µg/mL ([4]; Table 3, H37Rv, read-out: Inhibition (%))	MIC (M. tuberculosis H37Rv; Mycobacterium tuberculosis, H37RV, Table 3, H37Rv, read-out: MIC)	antimalarial activity in words ([3]; D6 and W2 clones, Table 2)	times more active than bis(1,1-dioxy-4-tert-butylcyclohexane) ([3]; antimalarial activity versus literature tetraoxane)
CC(=O)O[C@H]1CC2C(C3CC[C@H](C(C)CCC(=O)O)[C@]31C)[C@H](OC(C)=O)C[C@@H]1CC3(CC[C@]21C)OOC1(CCC(c2ccccc2)CC1)OO3 (single isomer, unassigned) [Compound 1C49, 7α,12α-Diacetoxy-5β-cholan-24-oic acid-3-spiro-6′-(1′,2′,4′,5′-tetraoxacyclohexane)-3′-spiro-1″-((4″S or R)-phenyl)cyclohexane]	54.24 ng/mL	43.85 ng/mL	0.81	89%	89%	>6.25 µg/mL	>6.25 µg/mL								
COC(=O)CCC(C)[C@H]1CCC2C3C(C[C@H](OC(C)=O)[C@@]21C)[C@@]1(C)CCC2(C[C@H]1C[C@H]3OC(C)=O)OOC1(CCCCC1)OO2 (stereo partly drawn) [8b/1B05, Methyl 7α,12α-Diacetoxy-5β-cholan-24-oate-3-spiro-6′-(1′,2′,4′,5′-tetraoxacyclohexane)-3′-spirocyclohexane]			0.79					0.0136 µg/mL (≈ 0.0215 µM)	0.0108 µg/mL (≈ 0.017 µM)	0%	> 6.25 µg/mL				
COC(=O)CCC(C)[C@H]1CCC2C3C(C[C@H](OC(C)=O)[C@@]21C)[C@@]1(C)CCC2(C[C@H]1C[C@H]3OC(C)=O)OOC1(CCCC1)OO2 (stereo partly drawn) [8a/1B04, Methyl 7α,12α-Diacetoxy-5β-cholan-24-oate-3-spiro-6′-(1′,2′,4′,5′-tetraoxacyclohexane)-3′-spirocyclopentane]			0.71					0.0243 µg/mL (≈ 0.0391 µM)	0.0172 µg/mL (≈ 0.0277 µM)	0%	> 6.25 µg/mL				
CNC(=O)CCC(C)[C@H]1CCC2C3C(C[C@H](OC(C)=O)[C@@]21C)[C@@]1(C)CCC2(C[C@H]1C[C@H]3OC(C)=O)OOC1(CCC(c3ccccc3)CC1)OO2 (single isomer, unassigned) [Compound 1C51, N-Methyl-7α,12α-Diacetoxy-5β-cholan-24-amide-3-spiro-6′-(1′,2′,4′,5′-tetraoxacyclohexane)-3′-spiro-1″-((4″S or R)-phenyl)cyclohexane]	64.62 ng/mL	54.72 ng/mL	0.85	61%	61%	>6.25 µg/mL	>6.25 µg/mL								
CCNC(=O)CCC(C)[C@H]1CCC2C3C(C[C@H](OC(C)=O)[C@@]21C)[C@@]1(C)CCC2(C[C@H]1C[C@H]3OC(C)=O)OOC1(CCC(c3ccccc3)CC1)OO2 (single isomer, unassigned) [Compound 1C52, N-Ethyl-7α,12α-Diacetoxy-5β-cholan-24-amide-3-spiro-6′-(1′,2′,4′,5′-tetraoxacyclohexane)-3′-spiro-1″-((4″S or R)-phenyl)cyclohexane]	32.79 ng/mL	32.58 ng/mL	0.99	62%	62%	>6.25 µg/mL	>6.25 µg/mL								
CCNC(=O)CCC(C)[C@H]1CCC2C3C(C[C@H](OC(C)=O)[C@@]21C)[C@@]1(C)CCC2(C[C@H]1C[C@H]3OC(C)=O)OOC1(CCC(C)CC1)OO2 (stereo partly drawn) [23/1C32, N-Ethyl-7α,12α-diacetoxy-5β-cholan-24-amide-3-spiro-6′-(1′,2′,4′,5′-tetraoxacyclohexane)-3′-spiro-1″-((4″S)-methyl)cyclohexane]	10.32 ng/mL	6.57 ng/mL	0.64		21%		>6.25 µg/mL								
COC(=O)CCC(C)[C@H]1CCC2C3C(C[C@H](OC(C)=O)[C@@]21C)[C@@]1(C)CCC2(C[C@H]1C[C@H]3OC(C)=O)OOC1(CCC(c3ccccc3)CC1)OO2 (single isomer, unassigned) [Compound 1B14b, Methyl 7α,12α-diacetoxy-5β-cholan-24-oate-3-spiro-6′-(1′,2′,4′,5′-tetraoxacyclohexane)-3′-spiro-1″-((4″R or S)- and (4″S or R)-phenyl)cyclohexane]	31.76 ng/mL	25.00 ng/mL	0.79	46%	46%	>6.25 µg/mL	>6.25 µg/mL								
CC(=O)O[C@H]1CC2C(C3CC[C@H](C(C)CCC(=O)O)[C@]31C)[C@H](OC(C)=O)C[C@@H]1CC3(CC[C@]21C)OOC1(CCC(C)CC1)OO3 (stereo partly drawn) [9g/1C17]	0.97 ng/mL	0.62 ng/mL	0.64							21%	> 6.25 µg/mL	21%	> 6.25 µg/mL and > 9.84 µM		
CCNC(=O)CCC(C)[C@H]1CCC2C3C(C[C@H](OC(C)=O)[C@@]21C)[C@@]1(C)CCC2(C[C@H]1C[C@H]3OC(C)=O)OOC1(CCC(CC)CC1)OO2 (single isomer, unassigned) [31/1C42, N-Ethyl-7α,12α-Diacetoxy-5β-cholan-24-amide-3-spiro-6′-(1′,2′,4′,5′-tetraoxacyclohexane)-3′-spiro-1″-((4″S or R)-ethyl)cyclohexane]	15.64 ng/mL	12.22 ng/mL	0.78		83%		>6.25 µg/mL								
CCCNC(=O)CCC(C)[C@H]1CCC2C3C(C[C@H](OC(C)=O)[C@@]21C)[C@@]1(C)CCC2(C[C@H]1C[C@H]3OC(C)=O)OOC1(CCC(CC)CC1)OO2 (single isomer, unassigned) [32/1C43, N-(n-Propyl)-7α,12α-Diacetoxy-5β-cholan-24-amide-3-spiro-6′-(1′,2′,4′,5′-tetraoxacyclohexane)-3′-spiro-1″-((4″S or R)-ethyl)cyclohexane]	62.20 ng/mL	84.64 ng/mL	1.36		71%		>6.25 µg/mL							inactive	
COC(=O)CCC(C)[C@H]1CCC2C3C(C[C@H](OC(C)=O)[C@@]21C)[C@@]1(C)CCC2(C[C@H]1C[C@H]3OC(C)=O)OOC1(CCC(C(C)(C)C)CC1)OO2 (single isomer, unassigned) [8l/1B09b, Methyl 7α,12α-diacetoxy-5β-cholan-24-oate-3-spiro-6′-(1′,2′,4′,5′-tetraoxacyclohexane)-3′-spiro-1″-(4″R or S)- and (4″S or R)-t-butyl)cyclohexane]	35.84 ng/mL	19.19 ng/mL	0.54		0%		>6.25 µg/mL								ca. 3.7 times
CC(=O)O[C@H]1CC2C(C3CC[C@H](C(C)CCC(=O)O)[C@]31C)[C@H](OC(C)=O)C[C@@H]1CC3(CC[C@]21C)OOC1(CCC(C)CC1)OO3 (stereo partly drawn) [9h/1C18]	19.74 ng/mL	11.26 ng/mL	0.57		34%		>6.25 µg/mL								
